Laboratory results published in ChEMBL document CHEMBL4673296 (J Med Chem, 2020).

Key:
[1] = Tmax in C57BL/6J mouse at 30 mg/kg, po measured upto 24 hrs by LC-MS/MS analysis; type: ADME, organism-based; settings: in vivo
[2] = molecular target: T1, Serine/threonine-protein kinase ULK2 (Homo sapiens, UniProt Q8IYT8); assay: Inhibition of ULK2 (unknown origin) expressed in HEK293T cells incubated for 2 hrs by NanoBRET assay; type: cell-based
T1 sequence (Q8IYT8 whole entry): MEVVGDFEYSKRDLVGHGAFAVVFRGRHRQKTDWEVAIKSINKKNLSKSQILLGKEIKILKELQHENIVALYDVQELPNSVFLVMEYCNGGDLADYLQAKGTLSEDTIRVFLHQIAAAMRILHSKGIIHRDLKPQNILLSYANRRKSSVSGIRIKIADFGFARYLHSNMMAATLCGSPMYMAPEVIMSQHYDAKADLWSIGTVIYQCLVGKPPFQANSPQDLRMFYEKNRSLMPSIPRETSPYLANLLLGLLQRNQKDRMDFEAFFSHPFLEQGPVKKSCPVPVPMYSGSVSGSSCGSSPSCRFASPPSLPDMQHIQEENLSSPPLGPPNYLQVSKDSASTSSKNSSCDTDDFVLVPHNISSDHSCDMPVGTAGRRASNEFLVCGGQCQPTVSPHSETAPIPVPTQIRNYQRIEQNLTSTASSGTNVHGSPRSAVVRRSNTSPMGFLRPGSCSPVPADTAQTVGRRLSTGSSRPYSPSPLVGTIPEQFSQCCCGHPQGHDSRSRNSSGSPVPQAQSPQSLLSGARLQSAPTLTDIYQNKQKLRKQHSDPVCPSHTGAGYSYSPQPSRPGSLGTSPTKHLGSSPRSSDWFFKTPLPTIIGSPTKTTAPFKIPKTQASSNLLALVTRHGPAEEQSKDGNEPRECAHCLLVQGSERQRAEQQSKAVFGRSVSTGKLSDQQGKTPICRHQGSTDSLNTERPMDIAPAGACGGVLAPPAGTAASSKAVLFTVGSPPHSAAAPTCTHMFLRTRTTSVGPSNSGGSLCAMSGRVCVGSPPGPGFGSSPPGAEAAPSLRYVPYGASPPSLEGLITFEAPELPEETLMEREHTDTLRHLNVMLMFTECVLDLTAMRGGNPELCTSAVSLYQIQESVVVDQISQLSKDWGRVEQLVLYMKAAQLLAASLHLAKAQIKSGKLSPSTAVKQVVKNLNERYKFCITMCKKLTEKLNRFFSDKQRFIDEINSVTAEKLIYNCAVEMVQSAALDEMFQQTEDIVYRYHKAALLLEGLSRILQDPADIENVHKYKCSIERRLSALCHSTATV

[3] = molecular target: T2, Serine/threonine-protein kinase ULK1 (Homo sapiens, UniProt O75385); assay: Inhibition of ULK1 (unknown origin) expressed in HEK293T cells incubated for 2 hrs by NanoBRET assay; type: cell-based
T2 sequence (O75385 whole entry): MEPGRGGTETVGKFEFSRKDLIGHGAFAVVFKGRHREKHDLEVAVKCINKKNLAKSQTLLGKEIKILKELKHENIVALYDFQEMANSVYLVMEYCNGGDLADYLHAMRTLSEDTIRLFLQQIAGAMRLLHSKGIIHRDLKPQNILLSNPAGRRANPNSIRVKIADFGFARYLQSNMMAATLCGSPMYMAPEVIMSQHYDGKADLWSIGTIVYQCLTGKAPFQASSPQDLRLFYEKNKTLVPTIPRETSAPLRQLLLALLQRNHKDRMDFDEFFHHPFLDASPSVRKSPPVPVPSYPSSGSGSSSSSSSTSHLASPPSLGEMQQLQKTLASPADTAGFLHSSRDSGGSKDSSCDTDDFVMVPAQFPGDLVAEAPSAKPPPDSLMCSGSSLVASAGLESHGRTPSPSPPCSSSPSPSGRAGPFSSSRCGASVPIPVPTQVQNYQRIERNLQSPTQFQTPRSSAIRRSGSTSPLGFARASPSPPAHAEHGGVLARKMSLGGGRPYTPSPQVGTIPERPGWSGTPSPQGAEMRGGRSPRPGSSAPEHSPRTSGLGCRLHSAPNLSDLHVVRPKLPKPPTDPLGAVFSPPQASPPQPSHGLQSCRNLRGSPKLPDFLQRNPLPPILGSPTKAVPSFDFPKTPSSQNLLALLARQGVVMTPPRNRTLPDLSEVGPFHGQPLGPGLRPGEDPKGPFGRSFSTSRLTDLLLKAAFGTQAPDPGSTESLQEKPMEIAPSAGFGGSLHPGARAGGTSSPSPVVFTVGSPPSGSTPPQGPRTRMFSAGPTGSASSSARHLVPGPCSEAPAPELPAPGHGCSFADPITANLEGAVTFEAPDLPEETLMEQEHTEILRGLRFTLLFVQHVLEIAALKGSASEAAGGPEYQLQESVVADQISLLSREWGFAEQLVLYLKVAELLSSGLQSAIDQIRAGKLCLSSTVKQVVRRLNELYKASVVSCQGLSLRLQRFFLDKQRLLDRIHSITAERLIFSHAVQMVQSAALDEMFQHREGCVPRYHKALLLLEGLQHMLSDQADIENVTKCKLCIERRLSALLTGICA

In the case of COc1ccc(Nc2ncc(C(F)(F)F)c(NC3CC3)n2)cc1OC, the Tmax [1] is reported as 1 h, the IC50 [2] is reported as 1.16 µM and the IC50 [3] is reported as 0.328 µM.
